Here are results for seven molecules from patent US8829014B2, “Thiazole and thiophene analogues, and their use in treating autoimmune diseases and cancers” (Board of Supervisors of Louisiana State University and …, priority 2006, dated 2014).

Marks after values point to notes of the source that are not given here.

One data set relates to eIF4E. Kind of data set: eIF4E inhibitor screen: luciferase under FGF 5′UTR in FaDu cells (highly cap-dependent translation). The conditions noted are these: 1.0 μM, 48 h, FaDu UTR cells, normalized to DMSO (FIG. 8). Type of data set: cell-based. From the text: Since highly cap-dependent translation is associated with synthesis of proteins involved in cancer, a compound that inhibits this pathway may be used as an anti-cancer agent. The assay was developed by cloning the highly structured 5′ UTR of FGF, which requires high levels of eIF4E before protein synthesis can initiate, into the proper orientation of the reporter gene luciferase, and then stably transfecting the modified luciferase gene into the cell line FaDu that is known to have high levels of eIF4E. The activity of luciferase is then monitored in the presence and absence of the tested compound.
Generation of Stable Cell Lines: The pMS110 plasmid (pGL3-control plasmid from Promega which contains a neo selectable marker) was used to generate pMS110-5′UTR by cloning the 5′ UTR of FGF just upstream of the luciferase AUG start codon. FaDu cells, a head and neck cancer cell line, were transfected using Lipofectamine2000 (Invitrogen). Twenty-four hours after transfection G418 was added at 500 μg/ml. Cells were maintained in G418 for 14 days, and then individual colonies were transferred to a 96-well plate for propagation. Individual clones were analyzed for luciferase expression by plating 10^4 cells per well in a 96-well plate for 24 hours before lysing the cells and analyzing for luciferase activity in a Victor III (Perkin Elmer) or Lucy2 (Rosys Anthos). FaDu9000 and FaDuUTR were the clones that expressed the highest level of active luciferase following transfection of pMS110 and pMS110-5′UTR, respectively.
Analysis of Rapamycin Responsiveness: Cells of FaDu9000 and FaDuUTR were plated at 1×10^4 cells/well in a 96-well dish. Twenty-four hours after plating, 0.1% DMSO (vehicle control) or 10 nM rapamycin were added to each well, and the cells were maintained for an additional 24 or 48 hours. The cells were then lysed and luciferase activity was determined using BriteGlo (Promega) as per manufacturer's instruction and recorded using the Victor III. Following subtraction of background activity, the mean value of quadruplicate samples for a given experiment was determined, and the treated cells were normalized to the control. At least four separate experiments were conducted, and the mean and standard error were calculated. To determine if rapamycin affected cell viability, an MTS assay (Cell Proliferation One Solution, Promega) was carried out on each population at 48 hours in two separate experiments.
The FaDu cell line stably transfected with FGF 5′UTR was used to screen thirty-nine representative compounds, each at a concentration of 1.0 μM. Additional cells were treated with vehicle, 0.3% DMSO. Cells were plated for twenty-four hours in a 96-well plate. Each compound was then added to triplicate wells, and the cells were incubated for forty-eight hours before measuring luciferase activity as above. The mean luciferase activity was measured using Promega's Brite-Glo kit, and the mean for each sample was normalized to DMSO. The experiment was then repeated, and the average and standard deviation of the two experiments were determined (FIG. 8).

For data set [1], the system named is NF-κB. Kind of data set: NF-κB inhibitor screen: basal NF-κB-dependent luciferase expression in HEK/NF-κB cell line. The class given is cell-based. The conditions noted are these: 1.0 μM screen of 39 compounds (FIG. 11). The method in brief: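 HEK293 cells stably carrying a luciferase reporter under six NF-κB elements were treated with compound, unstimulated, 24 h after plating. Compounds were first tested at 1.0 μM (0.3% DMSO), later at six doses from 10 to 3300 nM, in triplicate. Brite-Glo luciferase signal was normalized to DMSO, or to the lowest dose for dose-response runs.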

The test system of the next data set is carageenan-induced edema. Kind of data set: Carrageenan-induced rat paw edema test (anti-inflammatory activity). Type of data set: in vivo, Sprague-Dawley rats. The method in brief:
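Sprague-Dawley rats (male and female, 150-250 g), fasted 18 h, given compound orally at 50 mg/kg in 0.1% sodium CMC (alternatively i.v., s.c. or i.p.). 1% carrageenan injected sub-plantar in right hind paw 1 h later. Paw displacement read again 3 h later; % protection = [(Control−Test)/Control]×100 versus saline control.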
(Carrageenan injected into the paw causes an acute inflammation.)

Data set [2] deals with NF-κB. Kind of data set: TNF-α-induced NF-κB-dependent luciferase expression in HEK cells. Type of data set: cell-based. Also on record: NF-κB % inhibition: concentration or dose not given beside the values. The conditions noted are these: for NF-κB % inhibition: TNF-α-induced, compound added 1 h before inducer, luciferase 24 h later, normalized to DMSO vehicle.
A further data set relates to AP-1. The data set is described as follows: PMA-induced AP-1 luciferase expression in HEK cells. Type of data set: cell-based. The conditions noted are these: for AP-1 % inhibition: PMA-induced, compound added 1 h before inducer, luciferase 24 h later, normalized to DMSO vehicle.
The test system of data set [3] is human proximal tubule (HPT) cells. The data set is described as follows: Ethidium homodimer (EthHD) uptake toxicity assay in HPT cells. The class given is cell-based. The settings on record: 10 μM, 48 h, relative to vehicle. The protocol:
(§1) Additional compounds have also been tested for their ability to inhibit both TNF-α-induced NF-κB—expression and PMA-induced AP-1 expression. In both tests, the compound was added for 1 h, then the appropriate inducer was added, and luciferase activity was monitored 24 h later. Values were then normalized to the vehicle control, DMSO. Following the initial luciferase screens, studies were conducted to assess the cytotoxicity of the compounds in normal cells such as VSMC, HUVEC, or HPT cells. Human umbilical vein endothelial cells (HUVEC) represent the normal endothelium, vascular smooth muscle cells (VSMC) were represented by cells from the adult rat aorta, and human proximal tubule (HPT) cells represent the normal proximal tubule in vivo. These cells were grown to near confluency in multi-well plates, and were then treated for 48 h with either vehicle (0.1% DMSO) or 10 μM of each drug candidate. Following treatment, the media from the VSMC and HUVEC incubations were removed, and the amount of lactate dehydrogenase (LDH) released into the medium was determined with a commercial kit. LDH is normally confined to the cytosol, and its release represents “leakiness” of the plasma membrane. LDH activity was expressed as % increase over vehicle-treated cells. In another assay of viability, the treated VSMC and HUVEC were removed by trypsinization and treated with trypan blue, a dye that is taken up only by dead cells. The number of both live and dead cells was counted using an automated cell viability analyzer. The % decrease in numbers of viable cells was determined. Toxicity in the treated HPT cells was determined by the ethidium homodimer (EthHD) uptake assay. EthHD is a fluorescent dye that is excluded from live cells, but is taken up by cells that have lost permeability barriers. Inside the cell, EthHD produces a strong fluorescent signal, which is proportional to the number of dead cells. Results were expressed as a % increase in cell death over vehicle-treated cells. The lead compounds were also tested in two pairs of cell lines from either the skin or prostate, one tumorigenic and one non-tumorigenic, to test for any differences in toxicity or heightened sensitivity in the tumorigenic lines. The cells were treated for 48 h with vehicle (0.1% DMSO) or 10 μM of each drug candidate. Following treatment, the viability of the cells was determined by the MTT assay. In this assay, the MTT dye is converted only in viable cells by intracellular enzymes to a colorimetric product that is quantitated by a microplate reader.
(§2) For the results in Table 13, cells were grown to near confluency in multi-well plates, then treated for 48 h with either vehicle (0.1% DMSO) or 10 μM of each drug candidate. Following treatment, the media from the VSMC and HUVEC incubations were removed, and the amount of lactate dehydrogenase (LDH) released into the medium was determined with a commercial kit and expressed as a % increase over vehicle-treated cells. HPT toxicity was determined by the ethidium homodimer (EthHD) uptake assay. Inside the cell, EthHD produces a strong fluorescent signal, which is proportional to the amount of cell death, expressed as a % increase in cell death over vehicle-treated cells. The lead compounds were also tested in two pairs of cell lines from the skin or prostate, one tumorigenic and one non-tumorigenic, to test for differing toxicity or heightened sensitivity in the tumorigenic lines. The cells were treated for 48 h with vehicle (0.1% DMSO) or 10 μM of each drug candidate, and the viability of the cells was determined by the MTT assay, expressed as a % decrease in viability compared to vehicle-treated cells. The in vivo inflammation model measured the % inhibition of rat paw edema induced by carageenan injection.

For data set [4], the system named is Human umbilical vein endothelial cells (HUVEC). Kind of data set: Trypan blue viability count in HUVEC. The class given is cell-based. The settings on record: HUVEC, 10 μM, 48 h, relative to vehicle. How it is done:
as §1

For data set [5], the system named is vascular smooth muscle cells (VSMC). Kind of data set: LDH release cytotoxicity in VSMC. The class given is cell-based. The conditions noted are these: VSMC, 10 μM, 48 h, relative to vehicle. How it is done: as §1, §2
For data set [6] the test system is unchanged. The data set is described as follows: Trypan blue viability count in VSMC. The class given is cell-based. The settings on record: VSMC, 10 μM, 48 h, relative to vehicle. How it is done:
as §1

Data set [7] concerns cell lines from the skin, one tumorigenic and one non-tumorigenic. Kind of data set: MTT viability in skin cell line pair, tumorigenic and non-tumorigenic. Type of data set: cell-based. The protocol:
as §1, §2

Data set [8] has as its system Human umbilical vein endothelial cells (HUVEC). Kind of data set: LDH release cytotoxicity in HUVEC. The class given is cell-based. The conditions noted are these: HUVEC, 10 μM, 48 h, relative to vehicle. How it is done:
as §1, §2
Background: Release of lactate dehydrogenase indicates damage to the cell membrane.

In the case of `COc1ccc(C(=O)c2sc(Nc3ccccc3)nc2N)cc1` [Example 115, (4-Amino-2-phenylamino-thiazole-5-yl)-4-(methoxy-phenyl)-methanone], in the data set on eIF4E, the “luciferase expression under the control of the FGF 5′UTR” value (from here on “luciferase expression under the control”) is recorded as “increased luciferase expression”. The “basal NF-κB-dependent luciferase expression” value in the data set with NF-κB [1] is given as “potentiated expression in one of the two experiments”. Besides, the “% Protection P” value with carageenan-induced edema (rat paw edema, 50 mg/kg, reading 3 hours after carrageenan; [(Control−Test)/Control]×100%; 50 mg/kg) stood at 90.92%.
Take `O=C(c1sc(Nc2ccccc2)nc1-c1ccccc1)c1sc(Nc2ccccc2)nc1-c1ccccc1` [Example 126, Bis-(2-phenylamino-4-phenyl-thiazole-5-yl)-methanone]: the inhibition at 1 µM in the data set with NF-κB [2] (Homo sapiens, HEK293, 1 uM, luciferase in HEK/NF-κB cells, as described in Example 398, read-out: NFkB inhibition @ 1 uM) stood at 22.2%; in the data set on AP-1 (AP1, 1 uM, luciferase in HEK/AP-1 cells, as described in Example 398) it was 27.1%. In the data set with eIF4E, the “luciferase expression under the control” value is on record as “increased luciferase expression”. In addition, the inhibition in vivo at 50 mg/kg in the data set with carageenan-induced edema (Rattus norvegicus, po, 3 h, rat paw edema, 50 mg/kg, reading 3 hours after carrageenan; [(Control−Test)/Control]×100%; read-out: % Protection P) was determined as 64.5%.
In the case of `O=c1c2ccccc2nc(-c2cc(-c3ccncc3)c(N3CCOCC3)s2)n1-c1ccccc1Cl` [PMCR224], in data set [3], the “Cell Death (EthHD) % Increase HPT” value is reported as 266# %. Moreover, in the data set on NF-κB [2], the NF-κB % inhibition is 80** %. Moreover, the AP-1 % inhibition with AP-1 stood at 45%. In addition, the “Viable Cells % Decrease HUVEC” value in data set [4] is 43# %. Further, the “LDH release % Increase VSMC” value in data set [5] turned out to be 18%. For the same molecule, the “Viable Cells % Decrease VSMC” value in data set [6] was 63# %. For the same molecule, in [7], the “Viability (MTT) % Decrease HaCaT” value is −4% and the “Viability (MTT) % Decrease SRB12-p9” value is 13%. Moreover, in data set [8], the “LDH release % Increase HUVEC” value was 28# %.
Turning to `O=c1c2ccccc2nc(-c2cc(-c3ccncc3)c(N3CCOCC3)s2)n1-c1ccc(Cl)cc1` [PMCR236], in data set [3], the “Cell Death (EthHD) % Increase HPT” value is reported as 172# %. In the data set with NF-κB [2], the NF-κB % inhibition is 68** %. The AP-1 % inhibition with AP-1 is recorded as 32%. In addition, the “Viable Cells % Decrease HUVEC” value in data set [4] was 60# %. Besides, the “LDH release % Increase VSMC” value in data set [5] was 91# %. Moreover, the “Viable Cells % Decrease VSMC” value in data set [6] is listed as 94# %. In [7], the “Viability (MTT) % Decrease HaCaT” value was found to be 6% and the “Viability (MTT) % Decrease SRB12-p9” value amounted to 19%. The “LDH release % Increase HUVEC” value in data set [8] is reported as 39# %.
Take `CC(=O)c1ccc(-n2c(-c3cc(-c4ccncc4)c(N4CCOCC4)s3)nc3ccccc3c2=O)cc1` [PMCR242]: the “Cell Death (EthHD) % Increase HPT” value in [3] is 50# %. Also, the NF-κB % inhibition in the data set on NF-κB [2] is 66** %. In addition, in the data set on AP-1, the AP-1 % inhibition is on record as 84** %. Also, in data set [4], the “Viable Cells % Decrease HUVEC” value is 60# %. Moreover, in [5], the “LDH release % Increase VSMC” value is reported as 68# %. The “Viable Cells % Decrease VSMC” value in [6] is 90# %. Further, in data set [7], the “Viability (MTT) % Decrease HaCaT” value is −28% and the “Viability (MTT) % Decrease SRB12-p9” value is 14%. Besides, the “LDH release % Increase HUVEC” value in data set [8] is 61# %.
Turning to “Bis-(2-phenylamino-4-benzayl-thiazole-5-yl)-methanone [Example 133]”, in the data set on NF-κB [2] (1 uM, luciferase in HEK/NF-κB cells, as described in Example 398), the “NFkB inhibition @ 1 uM” value is 17.74. In the data set on eIF4E, the “luciferase expression under the control” value is given as “inhibited luciferase expression”. Besides, in the data set with AP-1 (1 uM, luciferase in HEK/AP-1 cells, as described in Example 398), the “AP-1 inhibition @ 1 uM” value was 24.53. In the data set with carageenan-induced edema (rat paw edema, 50 mg/kg, reading 3 hours after carrageenan; [(Control−Test)/Control]×100%), the “% Protection P” value is given as 19.09%.
For “N-{4-{5-[4-(4-acetylamino-phenyl)-5-morpholin-4-yl-thiophene-2-carbonyl]-2-morpholin-4-yl-thiophene-3-yl}-phenyl)-acetamide [Example 113]”, the “luciferase expression under the control” value in the data set on eIF4E was “increased luciferase expression”.

A word on the inhibition: it is how much of the control response was suppressed.
